Here are results for 15 compounds from patent US20250084056A1, “SUBSTITUTED OXOISOINDOLINYL PIPERIDINE-2,6-DIONE COMPOUNDS” (BRISTOL-MYERS SQUIBB COMPANY, priority 2023, published 2025).

What all share (type): cell-based
The test system of assay [1] is Phospho-Rb (Ser807/811). Put plainly: Phospho-Retinoblastoma (pRB) Cellular Assay. Conditions: Homo sapiens, OVCAR-3, NIH OVCAR3 cells, 24 hours; for IC50: concentration giving 50% response; for Emax: maximum response, reference compound at 10 μM = 100%, read-out: pRB Ymax. A digest of the protocol:
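Phospho-Rb (Ser807/811) kit read-out on EnVision after lysis (≥4 h, room temperature, dark) of OVCAR3 cells exposed to compound dilutions for 24 h. IC50 and maximum response Ymax are relative to a 10 μM reference compound defining 100%.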

The target in assay [2] is GSPT1 (Homo sapiens, UniProt P15170+Q96SW2). Description: GSPT1 Cellular Degradation Assay (DF15-GSPT1-ePL). On the set-up: expressed in transfected cells. As to conditions: DF15-GSPT1-ePL cells, 20 hours. Summed up:
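DC50 and Dmax were derived from chemiluminescence, with 75% response set by the reference compound at […]. Readout was ePL enzyme-fragment complementation in a DF15 line expressing chimeric GSPT1. Cells were exposed to compound for 20 h at 37 °C in RPMI 1640 with 10% FBS, cooled 30 min, then lysed with substrate for 60 min.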

Assay [3] addresses Cyclin E1 (Homo sapiens, UniProt P24864+Q96SW2). Put plainly: Cyclin E1 Cellular Degradation Assay (MSD). As to conditions: for DC50 / Dmax: Cyclin E1 cellular degradation; for Dmax: maximum degradation; for Ratio of GSPT1 DC50/Cyclin E1 DC50: selectivity for degradation of Cyclin E1 over GSPT1. On the set-up: endogenous in cells; host or cells: OVCAR3. A digest of the protocol: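 Cyclin E1 remaining after 24 h compound exposure of OVCAR3 cells was quantified in lysates by electrochemiluminescent MSD sandwich assay. DC50 (50% response concentration) and Dmax (maximum response) were calculated, with 110% response set by a reference compound at […].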

Sequence of Cyclin E1 (P24864 whole entry): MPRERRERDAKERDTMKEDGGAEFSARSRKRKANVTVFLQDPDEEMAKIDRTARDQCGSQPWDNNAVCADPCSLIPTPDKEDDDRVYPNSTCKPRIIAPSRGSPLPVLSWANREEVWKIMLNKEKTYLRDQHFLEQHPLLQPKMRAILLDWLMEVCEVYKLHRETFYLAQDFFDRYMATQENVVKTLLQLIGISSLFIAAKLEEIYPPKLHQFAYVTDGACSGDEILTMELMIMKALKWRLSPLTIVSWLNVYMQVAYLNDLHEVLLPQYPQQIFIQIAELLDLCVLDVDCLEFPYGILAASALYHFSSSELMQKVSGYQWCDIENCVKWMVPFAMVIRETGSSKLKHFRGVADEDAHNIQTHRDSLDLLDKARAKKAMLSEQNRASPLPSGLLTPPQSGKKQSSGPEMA
Sequence of Cyclin E1 (Q96SW2 whole entry): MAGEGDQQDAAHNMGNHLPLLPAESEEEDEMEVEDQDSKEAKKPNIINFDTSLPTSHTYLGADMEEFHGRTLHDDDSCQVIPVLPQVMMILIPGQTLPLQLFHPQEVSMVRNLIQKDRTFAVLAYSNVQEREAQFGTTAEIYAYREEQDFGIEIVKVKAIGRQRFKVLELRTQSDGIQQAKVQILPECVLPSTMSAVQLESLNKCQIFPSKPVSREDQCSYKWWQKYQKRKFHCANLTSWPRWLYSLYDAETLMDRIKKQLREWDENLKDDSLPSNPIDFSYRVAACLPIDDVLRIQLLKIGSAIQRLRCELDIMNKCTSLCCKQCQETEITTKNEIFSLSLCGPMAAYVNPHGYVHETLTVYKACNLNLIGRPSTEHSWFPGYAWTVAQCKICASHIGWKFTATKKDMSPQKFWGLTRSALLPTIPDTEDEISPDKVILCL
Sequence of Cyclin E1 (Q16531 whole entry partner): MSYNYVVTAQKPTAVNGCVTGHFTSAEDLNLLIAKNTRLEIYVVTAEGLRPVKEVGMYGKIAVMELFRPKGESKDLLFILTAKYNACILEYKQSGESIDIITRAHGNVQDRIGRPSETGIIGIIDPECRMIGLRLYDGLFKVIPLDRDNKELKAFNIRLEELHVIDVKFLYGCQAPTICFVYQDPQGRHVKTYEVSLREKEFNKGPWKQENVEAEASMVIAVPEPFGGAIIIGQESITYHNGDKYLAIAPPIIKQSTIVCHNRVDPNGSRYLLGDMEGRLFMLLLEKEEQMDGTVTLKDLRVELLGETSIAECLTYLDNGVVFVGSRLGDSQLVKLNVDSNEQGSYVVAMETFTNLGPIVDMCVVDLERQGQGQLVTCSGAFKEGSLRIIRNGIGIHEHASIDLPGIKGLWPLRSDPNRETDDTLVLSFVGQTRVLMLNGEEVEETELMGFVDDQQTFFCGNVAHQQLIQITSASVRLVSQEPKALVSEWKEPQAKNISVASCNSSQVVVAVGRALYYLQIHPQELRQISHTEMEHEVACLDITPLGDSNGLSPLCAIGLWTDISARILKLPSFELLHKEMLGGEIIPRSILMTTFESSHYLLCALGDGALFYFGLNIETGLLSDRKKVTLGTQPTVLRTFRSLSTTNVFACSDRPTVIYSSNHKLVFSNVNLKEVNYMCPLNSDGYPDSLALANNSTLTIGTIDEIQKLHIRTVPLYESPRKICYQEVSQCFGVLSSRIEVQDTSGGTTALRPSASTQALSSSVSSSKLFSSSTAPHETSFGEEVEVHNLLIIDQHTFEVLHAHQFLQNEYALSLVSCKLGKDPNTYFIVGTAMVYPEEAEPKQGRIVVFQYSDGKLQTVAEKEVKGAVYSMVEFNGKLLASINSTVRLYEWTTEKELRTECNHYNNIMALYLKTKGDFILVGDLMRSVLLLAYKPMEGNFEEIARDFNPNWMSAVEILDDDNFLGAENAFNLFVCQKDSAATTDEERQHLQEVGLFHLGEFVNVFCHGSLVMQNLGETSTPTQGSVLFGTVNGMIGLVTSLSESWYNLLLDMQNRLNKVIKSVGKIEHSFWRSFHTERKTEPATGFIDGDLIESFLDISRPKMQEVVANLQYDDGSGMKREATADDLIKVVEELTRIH
Sequence of GSPT1 (P15170 whole entry, the tested form may be a part): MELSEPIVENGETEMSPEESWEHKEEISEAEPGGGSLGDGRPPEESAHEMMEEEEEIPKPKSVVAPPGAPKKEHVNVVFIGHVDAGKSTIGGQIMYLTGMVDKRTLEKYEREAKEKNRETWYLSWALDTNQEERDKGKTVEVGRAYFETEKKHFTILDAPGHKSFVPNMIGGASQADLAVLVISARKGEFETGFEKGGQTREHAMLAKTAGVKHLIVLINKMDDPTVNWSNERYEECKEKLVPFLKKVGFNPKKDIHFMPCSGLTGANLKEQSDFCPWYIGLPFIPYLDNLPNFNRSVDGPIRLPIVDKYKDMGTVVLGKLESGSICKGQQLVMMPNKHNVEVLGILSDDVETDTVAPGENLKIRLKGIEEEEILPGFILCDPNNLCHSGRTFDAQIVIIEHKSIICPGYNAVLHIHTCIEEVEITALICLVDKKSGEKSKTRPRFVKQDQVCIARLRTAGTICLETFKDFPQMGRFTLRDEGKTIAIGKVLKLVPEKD
Sequence of GSPT1 (Q96SW2 whole entry, the tested form may be a part): as the sequence (Q96SW2 whole entry) above
Sequence of GSPT1 (Q16531 whole entry partner, the tested form may be a part): as the sequence (Q16531 whole entry partner) above

For `COc1c(COC(=O)Nc2ccc(Oc3cc(F)c(F)cc3C)cc2C)ccc2c1C(=O)N(C1CCC(=O)NC1=O)C2` (stereo not drawn) [Example 74, [2-(2,6-dioxopiperidin-3-yl)-4-methoxy-3-oxo-2,3-dihydro-1H-isoindol-5-yl]methyl N-[4-(4,5-difluoro-2-methylphenoxy)-2-methylphenyl]carbamate], in assay [1], the IC50 was found to be 53 nM and the Emax was 116%. Also, in assay [2], the DC50 is more than 14000 nM and the Dmax was found to be 37%. Moreover, in assay [3], it took 222 nM to reach half-maximal degradation (DC50), the Dmax came out at 111% and the “Ratio of GSPT1 DC50/Cyclin E1 DC50” value is on record as more than 63.

`COc1cc(Oc2ccc(F)cc2C)ccc1NC(=O)OCc1ccc2c(c1OC)C(=O)N(C1CCC(=O)NC1=O)C2` (stereo not drawn) [Example 75, [2-(2,6-dioxopiperidin-3-yl)-4-methoxy-3-oxo-2,3-dihydro-1H-isoindol-5-yl]methyl N-[4-(4-fluoro-2-methylphenoxy)-2-methoxyphenyl]carbamate]: in assay [1], inhibition was half-maximal at 287 nM (IC50) and the Emax was 120%. Further, in assay [2], the DC50 is more than 14000 nM and the Dmax stood at 23%. Moreover, in assay [3], the DC50 was 328 nM, the Dmax worked out at 109% and the “Ratio of GSPT1 DC50/Cyclin E1 DC50” value is recorded as more than 43.

`COc1c(COC(=O)Nc2ccc(Oc3ccc(F)cc3C)cc2C)ccc2c1C(=O)N(C1CCC(=O)NC1=O)C2` (stereo not drawn) [Example 76, [2-(2,6-dioxopiperidin-3-yl)-4-methoxy-3-oxo-2,3-dihydro-1H-isoindol-5-yl]methyl N-[4-(4-fluoro-2-methylphenoxy)-2-methylphenyl]carbamate]: in assay [1], 104 nM corresponded to half-maximal inhibition (IC50) and the Emax was found to be 122%. Further, in assay [2], the DC50 was more than 14000 nM and the Dmax was 33%. Moreover, in assay [3], half-maximal degradation (DC50) was put at 267 nM, the Dmax is 111% and the “Ratio of GSPT1 DC50/Cyclin E1 DC50” value is on record as more than 52.

Take `COc1c(COC(=O)Nc2ccc(Oc3cc(F)c(F)c(F)c3)cc2)ccc2c1C(=O)N(C1CCC(=O)NC1=O)C2` (stereo not drawn) [Example 77, [2-(2,6-dioxopiperidin-3-yl)-4-methoxy-3-oxo-2,3-dihydro-1H-isoindol-5-yl]methyl N-[4-(3,4,5-trifluorophenoxy)phenyl]carbamate]: in assay [1], the IC50 turned out to be 163 nM and the Emax amounted to 94%. In addition, in assay [2], the DC50 is more than 14000 nM and the Dmax is 32%. Further, in assay [3], it took 284 nM to reach half-maximal degradation (DC50), the Dmax stood at 113% and the “Ratio of GSPT1 DC50/Cyclin E1 DC50” value is listed as more than 49.

For the compound `COc1c(COC(=O)Nc2ccc(Oc3cc(F)c(F)cc3C)cc2)ccc2c1C(=O)N(C1CCC(=O)NC1=O)C2` (stereo not drawn) [Example 78, [2-(2,6-dioxopiperidin-3-yl)-4-methoxy-3-oxo-2,3-dihydro-1H-isoindol-5-yl]methyl N-[4-(4,5-difluoro-2-methylphenoxy)phenyl]carbamate], in assay [1], the IC50 was determined as 165 nM and the Emax came to 126%. Further, in assay [2], the DC50 is more than 14000 nM and the Dmax worked out at 2%. In assay [3], the DC50 came out at 316 nM, the Dmax came to 113% and the “Ratio of GSPT1 DC50/Cyclin E1 DC50” value is more than 44.

On to `COc1c(COC(=O)Nc2ccc(Oc3ccccc3F)cc2)ccc2c1C(=O)N(C1CCC(=O)NC1=O)C2` (stereo not drawn) [Example 79, [2-(2,6-dioxopiperidin-3-yl)-4-methoxy-3-oxo-2,3-dihydro-1H-isoindol-5-yl]methyl N-[4-(2-fluorophenoxy)phenyl]carbamate], for which, in assay [1], the IC50 came out at 128 nM and the Emax is 120%. For the same compound, in assay [2], the DC50 is more than 14000 nM and the Dmax amounted to 31%. Besides, in assay [3], half-maximal degradation (DC50) was put at 375 nM, the Dmax is 112% and the “Ratio of GSPT1 DC50/Cyclin E1 DC50” value is recorded as more than 37.

With `COc1c(COC(=O)Nc2ccc(Oc3ccccc3Cl)cc2)ccc2c1C(=O)N(C1CCC(=O)NC1=O)C2` (stereo not drawn) [Example 80, [2-(2,6-dioxopiperidin-3-yl)-4-methoxy-3-oxo-2,3-dihydro-1H-isoindol-5-yl]methyl N-[4-(2-chlorophenoxy)phenyl]carbamate], in assay [1], the IC50 worked out at 73 nM and the Emax is 119%. Also, in assay [2], the DC50 was more than 14000 nM and the Dmax turned out to be 40%. In assay [3], the half-maximal degradation concentration (DC50) is 181 nM, the Dmax turned out to be 115% and the “Ratio of GSPT1 DC50/Cyclin E1 DC50” value is recorded as more than 77.

Consider `COc1c(COC(=O)Nc2ccc(Oc3ccc(F)cc3C)cc2)ccc2c1C(=O)N(C1CCC(=O)NC1=O)C2` (stereo not drawn) [Example 81, [2-(2,6-dioxopiperidin-3-yl)-4-methoxy-3-oxo-2,3-dihydro-1H-isoindol-5-yl]methyl N-[4-(4-fluoro-2-methylphenoxy)phenyl]carbamate], for which, in assay [1], the IC50 was determined as 64 nM and the Emax turned out to be 103%. For the same compound, in assay [2], the DC50 is more than 14000 nM and the Dmax came out at 37%. Besides, in assay [3], the DC50 came out at 92 nM, the Dmax is 110% and the “Ratio of GSPT1 DC50/Cyclin E1 DC50” value was more than 152.

With `COc1c(COC(=O)Nc2ccc(Oc3ccc(F)c(C)c3)cc2C)ccc2c1C(=O)N(C1CCC(=O)NC1=O)C2` (stereo not drawn) [Example 82, [2-(2,6-dioxopiperidin-3-yl)-4-methoxy-3-oxo-2,3-dihydro-1H-isoindol-5-yl]methyl N-[4-(4-fluoro-3-methylphenoxy)-2-methylphenyl]carbamate], in assay [1], the IC50 came to 354 nM and the Emax stood at 97%. For the same compound, in assay [2], the DC50 is more than 14000 nM and the Dmax came to 25%. Also, in assay [3], the DC50 worked out at 327 nM, the Dmax came to 109% and the “Ratio of GSPT1 DC50/Cyclin E1 DC50” value is reported as more than 43.

Take `COc1c(COC(=O)Nc2ccc(Oc3ccc(F)c(Cl)c3)cc2C)ccc2c1C(=O)N(C1CCC(=O)NC1=O)C2` (stereo not drawn) [Example 83, [2-(2,6-dioxopiperidin-3-yl)-4-methoxy-3-oxo-2,3-dihydro-1H-isoindol-5-yl]methyl N-[4-(3-chloro-4-fluorophenoxy)-2-methylphenyl]carbamate]: in assay [1], the 50% inhibitory concentration (IC50) was found to be 172 nM and the Emax was found to be 117%. Further, in assay [2], the DC50 is more than 14000 nM and the Dmax was found to be 31%. In assay [3], the DC50 amounted to 136 nM, the Dmax was found to be 110% and the “Ratio of GSPT1 DC50/Cyclin E1 DC50” value is recorded as more than 103.

As for `COc1c(COC(=O)Nc2ccc(Oc3ccc(F)cc3)cc2)ccc2c1C(=O)N(C1CCC(=O)NC1=O)C2` (stereo not drawn) [Example 84, [2-(2,6-dioxopiperidin-3-yl)-4-methoxy-3-oxo-2,3-dihydro-1H-isoindol-5-yl]methyl N-[4-(4-fluorophenoxy)phenyl]carbamate], in assay [1], inhibition was half-maximal at 254 nM (IC50) and the Emax was determined as 95%. Moreover, in assay [2], the DC50 is more than 14000 nM and the Dmax was determined as 22%. For the same compound, in assay [3], the DC50 worked out at 94 nM, the Dmax came to 108% and the “Ratio of GSPT1 DC50/Cyclin E1 DC50” value is more than 149.

With `COc1c(COC(=O)Nc2ccc(Oc3ccccc3C(F)F)cc2)ccc2c1C(=O)N(C1CCC(=O)NC1=O)C2` (stereo not drawn) [Example 85, [2-(2,6-dioxopiperidin-3-yl)-4-methoxy-3-oxo-2,3-dihydro-1H-isoindol-5-yl]methyl N-{4-[2-(difluoromethyl)phenoxy]phenyl}carbamate], in assay [1], 117 nM corresponded to half-maximal inhibition (IC50) and the Emax turned out to be 98%. Besides, in assay [2], the DC50 is more than 14000 nM and the Dmax is 35%. In addition, in assay [3], it took 181 nM to reach half-maximal degradation (DC50), the Dmax was 105% and the “Ratio of GSPT1 DC50/Cyclin E1 DC50” value is more than 77.

In the case of `COc1c(COC(=O)Nc2ccc(Oc3ccccc3C(F)F)cc2F)ccc2c1C(=O)N(C1CCC(=O)NC1=O)C2` (stereo not drawn) [Example 86, [2-(2,6-dioxopiperidin-3-yl)-4-methoxy-3-oxo-2,3-dihydro-1H-isoindol-5-yl]methyl N-{4-[2-(difluoromethyl)phenoxy]-2-fluorophenyl}carbamate], in assay [1], 176 nM corresponded to half-maximal inhibition (IC50) and the Emax was found to be 112%. In addition, in assay [2], the DC50 was more than 14000 nM and the Dmax was found to be 33%. In addition, in assay [3], the DC50 is 205 nM, the Dmax stood at 107% and the “Ratio of GSPT1 DC50/Cyclin E1 DC50” value is given as more than 68.

In the case of `COc1c(COC(=O)Nc2ccc(Oc3ccccc3C3CC3)cc2)ccc2c1C(=O)N(C1CCC(=O)NC1=O)C2` (stereo not drawn) [Example 87, [2-(2,6-dioxopiperidin-3-yl)-4-methoxy-3-oxo-2,3-dihydro-1H-isoindol-5-yl]methyl N-[4-(2-cyclopropylphenoxy)phenyl]carbamate], in assay [1], half-maximal inhibition (IC50) required 272 nM and the Emax amounted to 98%. Besides, in assay [2], the DC50 is more than 14000 nM and the Dmax turned out to be 39%. Further, in assay [3], the DC50 came to 414 nM, the Dmax is 100% and the “Ratio of GSPT1 DC50/Cyclin E1 DC50” value is more than 34.

Regarding `COc1cc(Oc2ccccc2C(F)F)ccc1NC(=O)OCc1ccc2c(c1OC)C(=O)N(C1CCC(=O)NC1=O)C2` (stereo not drawn) [Example 88, [2-(2,6-dioxopiperidin-3-yl)-4-methoxy-3-oxo-2,3-dihydro-1H-isoindol-5-yl]methyl N-{4-[2-(difluoromethyl)phenoxy]-2-methoxyphenyl}carbamate], in assay [1], the IC50 came out at 227 nM and the Emax worked out at 10%. Moreover, in assay [2], the DC50 was more than 14000 nM and the Dmax stood at 30%. In assay [3], the DC50 was determined as 203 nM, the Dmax was determined as 104% and the “Ratio of GSPT1 DC50/Cyclin E1 DC50” value is listed as more than 69.
